Measured values: article PMC6009866, “Inhibition behaviours of some phenolic acids on rat kidney aldose reductase enzyme: an in vitro study” (Journal of Enzyme Inhibition and Medicinal Chemistry, 2017)
Entries after “also recorded” stand apart in the source; their conditions may differ.

Columns and labels:
[1] = biological target: T1, rat kidney aldose reductase (Rattus norvegicus, UniProt P07943); test: In vitro inhibition of purified rat kidney aldose reductase (NADPH absorbance decrease at 340 nm); assay type: biochemical; conditions: for Inhibition type: from Lineweaver-Burk graph, substrate DL-glyceraldehyde; for IC50: purified rat kidney AR, 10 mM DL-glyceraldehyde, 0.5 mM NADPH, pH 6.2, from Activity%-[Inhibitor] graphs; for Inhibition effect (in words): rat kidney AR, compared to the other phenolic acids of the study
T1 construct: Purified rat kidney aldose reductase enzyme; from tissue; host or cells: rat kidney
Method: Aldose reductase activity was assayed by following the absorbance decrease of NADPH at 340 nm spectrophotometrically.
The dialyzed enzyme solution was loaded onto the DE-52 Cellulose anion exchange column previously equilibrated with 10 mM Na-phosphate buffer (pH 7.4). […] Eluted fractions were collected, and the enzyme activity was checked at 340 nm. The fractions with the enzyme activity were pooled and mixed with glycerol. Then this enzyme solution was loaded onto the Sephadex G-100 column equilibrated with 10 mM Na-phosphate buffer (pH 7.4). Fractions were analyzed for both protein amount (280 nm) and enzyme activity (340 nm). […] The enzyme activity was checked at 340 nm in collected fractions, and the tubes with enzyme activity were combined. All purification procedures were performed at 4 °C. SDS polyacrylamide gel electrophoresis was done to the control of enzyme purity.
In inhibition studies, aldose reductase activity was assayed by following the change in absorbance at 340 nm, spectrophotometrically. One millilitre of the reaction mix contained 0.2 M Na-phosphate buffer (pH = 6.2), 10 mM DL-glyceraldehyde, 0.5 mM NADPH and enzyme solution[45]. AR activity was measured in the presence of different concentrations of phenolic acids. A control sample without inhibitor was taken as 100%, and for each inhibitor, an Activity%-[Inhibitor] graphs were drawn. IC50 values were determined from Activity%-[Inhibitor] graphs. For determination of the Ki constant, three different phenolic acid concentrations were used, and DL-glyceraldehyde was also used as a substrate at five different concentrations. […] Analysis of data obtained was made by t-test and they are given as X ± SD.

[2] = tested on: human placental aldose reductase; parameters: method as in PMID 2505942; conditions: cited from earlier work
[3] = Lineweaver-Burk graph, three inhibitor concentrations, five DL-glyceraldehyde concentrations, X ± SD
[4] = mixed-type inhibition, second constant, Lineweaver-Burk graph, X ± SD

SMILES | Ki [1, 3] | Inhibition type [1] | IC50 [1] | Ki [1, 4] | Ki' [1, 4] | Inhibition effect (in words) [1] | Inhibition effect (in words) [2] | Inhibition type [2]
O=C(O)c1cccc(O)c1 [3-Hydroxybenzoic acid, 3-hydroxybenzoic acid] | 176 ± 24.5 µM | Noncompetitive | 150 µM |  |  |  |  | 
O=C(O)c1cc(O)c(O)c(O)c1 [Gallic acid] | 219 ± 56.3 µM | Noncompetitive | 176 µM |  |  | weak inhibition effect |  | 
O=C(O)c1ccc(O)c(O)c1 [Protocatechuic acid, 3,4-dihydroxybenzoic acid] | 46.3 ± 31.5 µM | Noncompetitive | 48 µM |  |  |  |  | 
COc1cc(C(=O)O)cc(OC)c1O [Syringic acid] | 107 ± 21.6 µM | Noncompetitive | 95 µM |  |  |  |  | 
COc1cc(C(=O)O)ccc1O [Vanillic acid, 4-hydroxy-3-methoxybenzoic acid] | 103 ± 56.3 µM | Noncompetitive | 86 µM |  |  |  |  | 
O=C(O)c1cc(O)cc(O)c1 [α-Resorcylic acid, 3,5-dihydroxybenzoic acid] | 127 ± 22 µM | Noncompetitive | 110 µM |  |  |  |  | 

The remaining compounds from weak to strong by Ki [1, 3], led by results:

Ki [1, 3] | Inhibition type [1] | IC50 [1] | Ki [1, 4] | Ki' [1, 4] | SMILES | Inhibition effect (in words) [1] | Inhibition effect (in words) [2] | Inhibition type [2]
72.5 ± 29.9 µM | Noncompetitive | 69 µM |  |  | COc1cc(C=CC(=O)O)ccc1O [Ferullic acid, 4-Hydroxy-3-methoxycinnamic acid] |  |  | 
53.1 ± 2 µM | Uncompetitive | 57 µM |  |  | O=C(O)/C=C/c1ccc(O)cc1 [p-Coumaric acid, trans-4-Hydroxycinnamic acid] |  |  | 
52.2 ± 20.8 µM | Noncompetitive | 50 µM |  |  | O=C(O)c1ccc(O)cc1 [4-Hydroxybenzoic acid] |  |  | 
43.4 µM | Noncompetitive | 33 µM |  |  | COc1cc(C=CC(=O)O)cc(OC)c1O [Sinapic acid, 3,5-Dimethoxy-4-hydroxycinnamic acid] |  |  | 
1.56 ± 0.436 µM | mixed type | 5.47 µM | 28.05 µM | 28.05 ± 10.210 µM | O=C(/C=C/c1ccc(O)c(O)c1)O[C@@H]1C[C@](O)(C(=O)O)C[C@@H](O)[C@H]1O [Chlorogenic acid] | strong inhibition effect |  | 
0.598 ± 0.148 µM | Noncompetitive | 0.5 µM |  |  | O=C(OCC1OC(OC(=O)c2cc(O)c(O)c(OC(=O)c3cc(O)c(O)c(O)c3)c2)C(OC(=O)c2cc(O)c(O)c(OC(=O)c3cc(O)c(O)c(O)c3)c2)C(OC(=O)c2cc(O)c(O)c(OC(=O)c3cc(O)c(O)c(O)c3)c2)C1OC(=O)c1cc(O)c(O)c(OC(=O)c2cc(O)c(O)c(O)c2)c1)c1cc(O)c(O)c(OC(=O)c2cc(O)c(O)c(O)c2)c1 (stereo not shown) [Tannic acid] | strong inhibition effect; also recorded: potent inhibition effect | potent inhibitor | mixed type
